Reference: US11572590B2, “Methods for evaluating tumor cell spheroids using 3D microfluidic cell culture device” (Dana-Farber Cancer Institute, Inc., priority 2017, dated 2023)
Like-named read-outs stand apart in the source and are kept apart here.

Legend:
Assay in all cases: SelectScreen Kinase Profiling, single point inhibition and IC50 for off-target kinases
Assay type in all cases: biochemical
[1] = target: off-target kinases (Homo sapiens, UniProt Q16584); conditions: MAP3K11 (MLK3), LanthaScreen Binding
Chain of off-target kinases (Homo sapiens, UniProt Q16584) (Q16584 whole entry): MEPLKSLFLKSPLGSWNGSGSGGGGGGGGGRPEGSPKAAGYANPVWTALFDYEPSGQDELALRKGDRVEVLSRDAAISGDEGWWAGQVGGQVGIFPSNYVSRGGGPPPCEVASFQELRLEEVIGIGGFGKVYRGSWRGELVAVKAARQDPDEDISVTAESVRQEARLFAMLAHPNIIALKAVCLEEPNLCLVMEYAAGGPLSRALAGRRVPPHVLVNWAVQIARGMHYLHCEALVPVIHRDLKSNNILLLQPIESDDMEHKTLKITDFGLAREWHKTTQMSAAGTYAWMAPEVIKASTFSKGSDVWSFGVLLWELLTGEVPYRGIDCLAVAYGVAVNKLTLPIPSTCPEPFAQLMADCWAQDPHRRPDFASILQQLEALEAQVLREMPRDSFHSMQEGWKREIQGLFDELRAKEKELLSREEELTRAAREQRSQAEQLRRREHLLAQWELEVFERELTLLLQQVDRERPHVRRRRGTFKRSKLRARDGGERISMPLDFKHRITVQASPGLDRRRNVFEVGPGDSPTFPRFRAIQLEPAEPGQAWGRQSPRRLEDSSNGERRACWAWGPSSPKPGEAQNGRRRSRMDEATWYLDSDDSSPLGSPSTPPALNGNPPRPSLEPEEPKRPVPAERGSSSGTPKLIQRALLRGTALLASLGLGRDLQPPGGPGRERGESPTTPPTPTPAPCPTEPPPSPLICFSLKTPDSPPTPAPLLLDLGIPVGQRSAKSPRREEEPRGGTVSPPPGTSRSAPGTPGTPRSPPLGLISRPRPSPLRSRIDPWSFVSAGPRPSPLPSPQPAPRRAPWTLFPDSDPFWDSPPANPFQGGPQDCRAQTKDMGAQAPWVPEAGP

[2] = target: off-target kinases (Homo sapiens, UniProt P10721, N822K); conditions: KIT N822K, LanthaScreen Binding
Chain of off-target kinases (Homo sapiens, UniProt P10721, N822K) (P10721 26-976 N822K): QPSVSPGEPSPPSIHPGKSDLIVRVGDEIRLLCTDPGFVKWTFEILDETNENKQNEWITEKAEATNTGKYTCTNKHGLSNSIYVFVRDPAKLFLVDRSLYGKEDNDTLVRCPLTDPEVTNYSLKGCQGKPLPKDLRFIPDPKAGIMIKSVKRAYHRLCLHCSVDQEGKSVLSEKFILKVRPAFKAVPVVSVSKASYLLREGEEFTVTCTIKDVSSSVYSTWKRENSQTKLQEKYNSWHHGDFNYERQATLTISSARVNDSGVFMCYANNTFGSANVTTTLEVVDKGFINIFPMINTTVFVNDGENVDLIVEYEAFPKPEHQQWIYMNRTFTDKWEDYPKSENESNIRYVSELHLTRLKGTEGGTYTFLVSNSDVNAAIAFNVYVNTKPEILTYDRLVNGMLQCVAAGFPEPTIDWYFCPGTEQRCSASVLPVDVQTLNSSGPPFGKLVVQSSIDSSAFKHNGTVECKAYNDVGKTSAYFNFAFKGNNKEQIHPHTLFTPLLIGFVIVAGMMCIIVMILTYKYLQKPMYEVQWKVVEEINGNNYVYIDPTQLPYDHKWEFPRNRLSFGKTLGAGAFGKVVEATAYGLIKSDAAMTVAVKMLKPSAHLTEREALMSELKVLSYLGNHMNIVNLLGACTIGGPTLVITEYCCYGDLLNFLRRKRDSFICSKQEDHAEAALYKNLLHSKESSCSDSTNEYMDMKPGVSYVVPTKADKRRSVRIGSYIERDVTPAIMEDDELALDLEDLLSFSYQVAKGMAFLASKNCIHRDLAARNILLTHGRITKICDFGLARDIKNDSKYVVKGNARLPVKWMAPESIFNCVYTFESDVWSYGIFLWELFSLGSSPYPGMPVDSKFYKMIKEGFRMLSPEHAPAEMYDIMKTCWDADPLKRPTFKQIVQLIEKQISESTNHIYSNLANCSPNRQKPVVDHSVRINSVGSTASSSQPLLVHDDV

[3] = target: off-target kinases (Homo sapiens, UniProt Q16513); conditions: PKN2 (PRK2), LanthaScreen Binding
Chain of off-target kinases (Homo sapiens, UniProt Q16513) (Q16513 whole entry): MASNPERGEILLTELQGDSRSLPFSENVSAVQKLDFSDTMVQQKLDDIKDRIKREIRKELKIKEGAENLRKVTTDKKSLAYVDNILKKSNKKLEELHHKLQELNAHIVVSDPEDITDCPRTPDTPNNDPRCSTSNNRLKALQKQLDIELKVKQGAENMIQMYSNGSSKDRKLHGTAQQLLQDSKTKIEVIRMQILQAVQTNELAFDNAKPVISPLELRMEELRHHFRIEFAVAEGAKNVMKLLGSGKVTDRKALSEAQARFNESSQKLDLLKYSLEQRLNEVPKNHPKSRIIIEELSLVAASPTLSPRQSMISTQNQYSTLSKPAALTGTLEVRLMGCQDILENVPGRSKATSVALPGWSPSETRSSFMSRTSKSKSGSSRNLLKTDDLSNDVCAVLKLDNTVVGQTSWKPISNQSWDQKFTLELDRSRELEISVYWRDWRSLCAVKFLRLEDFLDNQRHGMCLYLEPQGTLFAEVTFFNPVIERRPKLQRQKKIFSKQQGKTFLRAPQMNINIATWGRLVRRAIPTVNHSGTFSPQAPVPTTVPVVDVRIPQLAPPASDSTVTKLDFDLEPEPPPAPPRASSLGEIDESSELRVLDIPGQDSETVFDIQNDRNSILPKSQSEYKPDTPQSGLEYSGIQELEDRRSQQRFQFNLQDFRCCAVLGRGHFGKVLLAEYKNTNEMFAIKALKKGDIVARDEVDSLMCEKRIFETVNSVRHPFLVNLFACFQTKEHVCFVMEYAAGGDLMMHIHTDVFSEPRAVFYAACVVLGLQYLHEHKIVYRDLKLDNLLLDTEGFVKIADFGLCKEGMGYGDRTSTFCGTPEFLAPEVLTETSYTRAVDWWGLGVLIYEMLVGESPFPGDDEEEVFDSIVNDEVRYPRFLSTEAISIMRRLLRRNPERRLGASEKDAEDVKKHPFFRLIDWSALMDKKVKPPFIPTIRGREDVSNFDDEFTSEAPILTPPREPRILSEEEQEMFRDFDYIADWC

[4] = target: off-target kinases (Homo sapiens, UniProt Q13131)
Chain of off-target kinases (Homo sapiens, UniProt Q13131) (Q13131 whole entry): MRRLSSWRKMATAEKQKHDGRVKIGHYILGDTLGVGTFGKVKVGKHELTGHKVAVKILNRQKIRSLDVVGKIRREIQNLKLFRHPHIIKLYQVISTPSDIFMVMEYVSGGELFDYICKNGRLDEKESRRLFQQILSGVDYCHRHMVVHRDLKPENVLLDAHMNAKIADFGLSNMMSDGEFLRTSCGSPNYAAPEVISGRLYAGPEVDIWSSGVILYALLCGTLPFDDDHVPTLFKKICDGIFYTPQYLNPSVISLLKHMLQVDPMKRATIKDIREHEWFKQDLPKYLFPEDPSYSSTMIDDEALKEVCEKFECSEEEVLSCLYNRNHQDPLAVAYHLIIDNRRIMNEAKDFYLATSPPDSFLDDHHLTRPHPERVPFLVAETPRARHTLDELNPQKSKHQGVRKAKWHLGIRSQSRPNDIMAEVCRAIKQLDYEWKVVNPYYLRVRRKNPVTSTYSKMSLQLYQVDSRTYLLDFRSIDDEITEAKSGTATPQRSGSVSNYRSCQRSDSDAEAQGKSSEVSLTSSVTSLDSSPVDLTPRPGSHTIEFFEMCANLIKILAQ

[5] = target: off-target kinases (Homo sapiens, UniProt P21802); conditions: FGFR2, ZLYTE, ATP Km app
[6] = target: off-target kinases (Homo sapiens, UniProt P23458); conditions: JAK1, ZLYTE, ATP Km app
Chain of off-target kinases (Homo sapiens, UniProt P23458) (P23458 whole entry): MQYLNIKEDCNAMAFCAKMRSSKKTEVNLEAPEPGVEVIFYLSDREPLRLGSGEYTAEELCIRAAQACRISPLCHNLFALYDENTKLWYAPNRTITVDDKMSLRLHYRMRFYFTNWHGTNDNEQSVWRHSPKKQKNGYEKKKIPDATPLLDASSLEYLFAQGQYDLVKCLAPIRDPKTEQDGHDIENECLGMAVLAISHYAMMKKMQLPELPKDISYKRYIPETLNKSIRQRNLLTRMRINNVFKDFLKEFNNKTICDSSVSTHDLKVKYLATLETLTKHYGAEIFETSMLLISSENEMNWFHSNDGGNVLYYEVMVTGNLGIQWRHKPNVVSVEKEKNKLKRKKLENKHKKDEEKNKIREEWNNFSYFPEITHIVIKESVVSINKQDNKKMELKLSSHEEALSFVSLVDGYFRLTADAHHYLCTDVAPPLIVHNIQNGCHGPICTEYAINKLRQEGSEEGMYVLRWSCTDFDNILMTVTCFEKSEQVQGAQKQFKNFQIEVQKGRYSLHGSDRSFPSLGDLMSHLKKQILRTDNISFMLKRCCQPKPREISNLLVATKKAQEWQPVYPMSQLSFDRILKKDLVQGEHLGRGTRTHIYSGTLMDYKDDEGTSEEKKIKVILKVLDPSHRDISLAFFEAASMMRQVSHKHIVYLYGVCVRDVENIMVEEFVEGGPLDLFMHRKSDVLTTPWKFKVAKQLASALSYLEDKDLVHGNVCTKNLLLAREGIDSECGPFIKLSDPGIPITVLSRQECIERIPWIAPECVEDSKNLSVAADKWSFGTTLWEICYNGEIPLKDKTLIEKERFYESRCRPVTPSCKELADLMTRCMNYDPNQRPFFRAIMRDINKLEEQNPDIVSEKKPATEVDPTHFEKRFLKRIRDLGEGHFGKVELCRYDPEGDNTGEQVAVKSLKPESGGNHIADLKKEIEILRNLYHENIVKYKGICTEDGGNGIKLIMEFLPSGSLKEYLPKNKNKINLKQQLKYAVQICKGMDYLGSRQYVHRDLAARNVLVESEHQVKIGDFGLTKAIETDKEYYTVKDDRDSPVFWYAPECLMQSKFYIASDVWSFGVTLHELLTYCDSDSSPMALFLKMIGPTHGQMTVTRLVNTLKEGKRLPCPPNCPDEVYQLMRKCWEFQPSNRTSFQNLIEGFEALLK

[7] = target: T1, off-target kinases (Homo sapiens, UniProt Q13188); conditions: STK3 (MST2), ZLYTE, ATP Km app
T1 sequence (Q13188 1-491): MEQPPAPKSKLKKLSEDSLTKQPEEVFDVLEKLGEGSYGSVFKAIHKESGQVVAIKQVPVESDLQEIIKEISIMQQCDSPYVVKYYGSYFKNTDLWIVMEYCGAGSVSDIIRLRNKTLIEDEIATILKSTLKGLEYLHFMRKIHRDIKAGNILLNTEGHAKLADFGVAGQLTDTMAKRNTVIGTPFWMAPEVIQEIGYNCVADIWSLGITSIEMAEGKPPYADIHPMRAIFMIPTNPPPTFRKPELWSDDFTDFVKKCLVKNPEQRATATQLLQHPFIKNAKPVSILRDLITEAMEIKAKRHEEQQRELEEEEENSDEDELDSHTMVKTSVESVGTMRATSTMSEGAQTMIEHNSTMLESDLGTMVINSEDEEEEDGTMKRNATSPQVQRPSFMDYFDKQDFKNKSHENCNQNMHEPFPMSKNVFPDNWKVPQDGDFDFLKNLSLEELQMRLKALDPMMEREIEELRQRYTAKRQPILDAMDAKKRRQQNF

Question: How did the inhibition ([1]; read-out: % Inhibition 1) turn out when `N#Cc1cc(-c2ncnc(Nc3ccc(N4CCN(C5COC5)CC4)cc3)n2)ccc1OC1CCOCC1` [Compound 1, 5-(4-((4-(4-(oxetan-3-yl)piperazin-1-yl)phenyl)amino)-1,3,5-triazin-2-yl)-2-((tetrahydro-2H-pyran-4-yl)oxy)benzonitrile] was run?
Answer: 24%

Question: What about the inhibition ([1]; read-out: % Inhibition 2) of the same compound?
Answer: 29%

Question: What about the inhibition ([1]; read-out: % Inhibition Avg) of the same compound?
Answer: 26%

Question: And the inhibition ([2]; read-out: % Inhibition 1)?
Answer: 66%

Question: What about the inhibition ([2]; read-out: % Inhibition 2) of the same compound?
Answer: 67%

Question: And the inhibition ([2]; read-out: % Inhibition Avg)?
Answer: 66%

Question: What about the inhibition ([3]; read-out: % Inhibition 1) of the same compound?
Answer: 51%

Question: And the inhibition ([3]; read-out: % Inhibition 2)?
Answer: 52%

Question: What about the inhibition ([3]; read-out: % Inhibition Avg) of the same compound?
Answer: 51%

Question: And the inhibition ([4]; AMPK (A1/B1/G2), LanthaScreen Binding, read-out: % Inhibition 1)?
Answer: 40%

Question: And the inhibition ([4]; AMPK (A1/B1/G2), LanthaScreen Binding, read-out: % Inhibition 2)?
Answer: 40%

Question: What about the inhibition ([4]; AMPK (A1/B1/G2), LanthaScreen Binding, read-out: % Inhibition Avg) of the same compound?
Answer: 40%

Question: And the inhibition ([4]; AMPK (A1/B1/G3), LanthaScreen Binding, read-out: % Inhibition 1)?
Answer: 37%

Question: What about the inhibition ([4]; AMPK (A1/B1/G3), LanthaScreen Binding, read-out: % Inhibition 2) of the same compound?
Answer: 42%

Question: And the inhibition ([4]; AMPK (A1/B1/G3), LanthaScreen Binding, read-out: % Inhibition Avg)?
Answer: 39%

Question: And the inhibition ([4]; AMPK (A1/B2/G1), LanthaScreen Binding, read-out: % Inhibition 1)?
Answer: 49%

Question: And the inhibition ([4]; AMPK (A1/B2/G1), LanthaScreen Binding, read-out: % Inhibition 2)?
Answer: 43%

Question: And the inhibition ([4]; AMPK (A1/B2/G1), LanthaScreen Binding, read-out: % Inhibition Avg)?
Answer: 46%

Question: And the inhibition ([4]; AMPK A1/B1/G1, ATP Km app, ZLYTE, read-out: % Inhibition 1)?
Answer: 58%

Question: What about the inhibition ([4]; AMPK A1/B1/G1, ATP Km app, ZLYTE, read-out: % Inhibition 2) of the same compound?
Answer: 53%

Question: What about the inhibition ([4]; AMPK A1/B1/G1, ATP Km app, ZLYTE, read-out: % Inhibition Avg) of the same compound?
Answer: 55%

Question: And the inhibition ([5]; read-out: % Inhibition 1)?
Answer: 12%

Question: And the inhibition ([5]; read-out: % Inhibition 2)?
Answer: 11%

Question: What about the inhibition ([5]; read-out: % Inhibition Avg) of the same compound?
Answer: 12%

Question: What about the inhibition ([6]; read-out: % Inhibition 1) of the same compound?
Answer: 11%

Question: What about the inhibition ([6]; read-out: % Inhibition 2) of the same compound?
Answer: 10%

Question: What about the inhibition ([6]; read-out: % Inhibition Avg) of the same compound?
Answer: 10%

Question: And the inhibition ([7]; read-out: % Inhibition 1)?
Answer: 5%

Question: What about the inhibition ([7]; read-out: % Inhibition 2) of the same compound?
Answer: 6%

Question: And the inhibition ([7]; read-out: % Inhibition Avg)?
Answer: 5%
